Structures can show the parent of a compound that is named as a salt.
Assays:
[1] = arterial blood pressure in treated rabbits; format: in vivo; conditions: doses utilized (3 mg/kg/week subcutaneously)
Description: The daily doses of cholesterol (1.6 g) were given in the morning (at 08.00 hours) each mixed in 20 g of food pellets. Normal chow, up to 150 g, was added after all the cholesterol-rich diet was eaten (usually within 30 minutes). The hydrochloride salt of lercanidipine or (R)-lercanidipine (Recordati, Milano, Italy) was administered subcutaneously as a solution in 50% propylene glycol. […] Animals had free access to water and were kept in a 12 hour light-dark cycle. Blood was drawn from the central ear artery at day 29 after treatment, started in order to monitor the lercanidipine plasma level at 24 hour post-dose.

Rec1_21 (TTCC 165) mRNA = assay: quantified RT-PCR, Rec1_21; format: in vivo, rabbit; conditions: for Relative Abundance Rec1_21, 20 pg F: hypercholesterolemic plus lercanidipine racemate, eight weeks, H2 (normocholesterolemic)=1.0
Description: (§1) Nineteen of the isolated DST clones were further validated using RT-PCR analyses; the data are presented in FIGS. 6-24 and in Tables 5-23, below. For each DST examined, the optimal annealing temperature and reagent conditions were determined for the corresponding set of primers (see Table 25) based on results from a preliminary experiment. In eight separate reactions, each set of primers was assayed to find the optimal conditions by adjusting the following four parameters: primer concentration, dNTP concentration, MgCl2 concentration, and number of Taq polymerase units. Once optimal conditions were determined, each DST was run in duplicate multiple simultaneous reactions which usually included at least four dilutions of template (cDNA library), plus control reactions lacking template, and six sequential data points for numbers of cycles.
(§2) Reactions were performed using “Hot Start” PCR with the Clontech TaqStart antibody system (Cat. #5400-1). Each reaction contained 1 ml of the cDNA library dilution as template, determined amounts of AmpliTaq DNA polymerase (cat. #N808-0156), MgCl2, dNTPs (GibcoBRL cat. #10297-018), primer, and Clontech TaqStart Antibody in a 20 ml final reaction volume using 10×Taq buffer II (without MgCl2). Typically, a master mix containing all components except the template was prepared and aliquoted. Various templates were then added to these master mix samples and 20 ml volumes were subsequently dispensed into individual reaction tubes. At various times during the PCR run, tubes were removed sequentially on a predetermined schedule in order to quantitate expression of the target DST over a “window” of cycle times. After amplification, the samples were quantified via fluorimetry.
(§3) PCR was performed at annealing temperatures that were five degrees above the average melting temperature of each primer pair. For primers greater than 10 bases (in a 0.05M salt solution), melting temperature was calculated using the following formula: Tm=59.9+41[% GC]−[675/Primer Length], where %GC is the decimal value. Following determination of the average melting temperature of the primer pair, the annealing temperature was determined by adding five degrees to the average melting temperature. PCR was performed using the following program: 1) 95 degrees Celsius, 3 minutes; 2) 95 degrees Celsius, 30 seconds; 3) TM+5 degrees Celsius, 30 seconds; 4) 72 degrees Celsius, for a time dependent on target length at 16 bp/second; 5) repeat steps 2-4 33 more cycles; 6) 72 degrees Celsius, 3 minutes; 7) 14 degrees Celsius, forever.
(§4) Following temperature cycling, 2 ml of the PCR reaction was added to 140 ml of a 1:280 dilution of PicoGreen (Molecular Probes cat. #P-11495 (10×100 ml)) in TE pH 7.5 in a 96-well Costar UV microtiter plate (Fisher cat. #07-200623). The samples were mixed gently for 1.5 minutes and allowed to equilibrate at room temperature in the dark for 15 minutes. The concentration of the PCR products was quantified by fluorimetry using a PerSeptive Biosystems CytoFluor series 4000 multi-well plate reader.
(§5) Background fluorescence was determined by using duplicate control samples that were cycled with all reaction components except the template. The mean value from these duplicate background control samples was subtracted from the corresponding experimental values prior to analyzing results. The sensitivity of the PicoGreen dsDNA assay is reported to be 250 pg/ml (50 pg dsDNA in a […] assay volume) using a fluorescence microplate reader such as was used in these measurements.
FIG. 20 is a graphical representation of the results of RT-PCR using 20 pg of clone REC1—21 template, in which the amount of PCR product (measured in arbitrary fluorescence units) is plotted against number of cycles, where polyA enriched mRNA was extracted from aortas or rabbits that were normocholesterolemic (filled diamonds, “H2”) and hypercholestrolemic plus lercanidipine racemate, eight weeks (filled squares, “F”).

Rec1_7 (CACA 282) mRNA = assay: quantified RT-PCR, Rec1_7; format: in vivo, rabbit; conditions: for Relative Abundance Rec1_7, 100 pg F: hypercholesterolemic plus lercanidipine racemate, eight weeks, H2 (normocholesterolemic)=1.0
Description: as §1, §2, §3, §4
as §5, with “measurements. […]” for “measurements.”

Rec1_12 (GCCC 232) mRNA = assay: quantified RT-PCR, Rec1_12; format: in vivo, rabbit; conditions: for Relative Abundance Rec1_12, 20 pg F: hypercholesterolemic plus lercanidipine racemate, eight weeks, H2 (normocholesterolemic)=1.0
Description: as §1, §2, §3, §4
as §5, with “measurements. […]” for “measurements.”

[2] = system: REC1_3 (MspI ACGG 162) mRNA; assay: quantified RT-PCR, Rec1_3; format: in vivo, rabbit; conditions: for Relative Abundance Rec1_3, 500 pg F: hypercholesterolemic plus lercanidipine racemate, eight weeks, H2 (normocholesterolemic)=1.0
Description: as §1, §2, §3, §4
as §5, with “measurements. […]” for “measurements.”

REC1_16 (TCGG 195) mRNA = assay: quantified RT-PCR, Rec1_16; format: in vivo, rabbit; conditions: for Relative Abundance Rec1_16, 20 pg F: hypercholesterolemic plus lercanidipine racemate, eight weeks, H2 (normocholesterolemic)=1.0
Description: as §1, §2, §3, §4
Background fluorescence was determined by using duplicate control samples that were cycled with all reaction components except the template. […] The sensitivity of the PicoGreen dsDNA assay is reported to be 250 pg/ml (50 pg dsDNA in a […] assay volume) using a fluorescence microplate reader such as was used in these measurements. […]

calcium channel = conditions: (R)-enantiomer compared with the other enantiomer of lercanidipine; cited from earlier work
[3] = hypercholesterolemic animals receiving lercanidipine

Q: Which results are given for COC(=O)C1=C(C)NC(C)=C(C(=O)OC(C)(C)CN(C)CCC(c2ccccc2)c2ccccc2)C1c1cccc([N+](=O)[O-])c1 (racemic) [lercanidipine, lercanidipine hydrochloride]?
A: effect on arterial blood pressure [1]: did not affect; Relative Abundance Rec1_21, 20 pg F (Rec1_21 (TTCC 165) mRNA; cycle 24): 0.0; Relative Abundance Rec1_21, 20 pg F (Rec1_21 (TTCC 165) mRNA; cycle 26): 0.0; Relative Abundance Rec1_21, 20 pg F (Rec1_21 (TTCC 165) mRNA; cycle 28): 0.0; Relative Abundance Rec1_21, 20 pg F (Rec1_21 (TTCC 165) mRNA; cycle 30): 0.1; Relative Abundance Rec1_21, 20 pg F (Rec1_21 (TTCC 165) mRNA; cycle 32): 0.1; Relative Abundance Rec1_21, 20 pg F (Rec1_21 (TTCC 165) mRNA; cycle 34): 0.3; expression of Rec1_21 at 8 weeks (RT-PCR study), in words (Rec1_21 (TTCC 165) mRNA; [3]): substantially decreased; Relative Abundance Rec1_7, 100 pg F (Rec1_7 (CACA 282) mRNA; cycle 24): 0.00; Relative Abundance Rec1_7, 100 pg F (Rec1_7 (CACA 282) mRNA; cycle 26): 0.00; Relative Abundance Rec1_7, 100 pg F (Rec1_7 (CACA 282) mRNA; cycle 28): 0.06; Relative Abundance Rec1_7, 100 pg F (Rec1_7 (CACA 282) mRNA; cycle 30): 0.10; Relative Abundance Rec1_7, 100 pg F (Rec1_7 (CACA 282) mRNA; cycle 32): 0.3; Relative Abundance Rec1_7, 100 pg F (Rec1_7 (CACA 282) mRNA; cycle 34): 0.5; expression of Rec1_7 at 8 weeks (RT-PCR study), in words (Rec1_7 (CACA 282) mRNA; hypercholesterolemic animals receiving lercanidipine racemate): down-regulated; Relative Abundance Rec1_12, 20 pg F (Rec1_12 (GCCC 232) mRNA; cycle 26): 0.1; Relative Abundance Rec1_12, 20 pg F (Rec1_12 (GCCC 232) mRNA; cycle 28): 0.0; Relative Abundance Rec1_12, 20 pg F (Rec1_12 (GCCC 232) mRNA; cycle 30): 0.4; Relative Abundance Rec1_12, 20 pg F (Rec1_12 (GCCC 232) mRNA; cycle 32): 0.6; Relative Abundance Rec1_12, 20 pg F (Rec1_12 (GCCC 232) mRNA; cycle 34): 0.6; Relative Abundance Rec1_12, 20 pg F (Rec1_12 (GCCC 232) mRNA; cycle 36): 0.6; expression of Rec1_12 at 8 weeks (RT-PCR study), in words (Rec1_12 (GCCC 232) mRNA; [3]): decreased; Relative Abundance Rec1_3, 500 pg F ([2]; cycle 26): 0.0; Relative Abundance Rec1_3, 500 pg F ([2]; cycle 28): 0.0; Relative Abundance Rec1_3, 500 pg F ([2]; cycle 30): 0.0; Relative Abundance Rec1_3, 500 pg F ([2]; cycle 32): 0.1; Relative Abundance Rec1_3, 500 pg F ([2]; cycle 34): 0.4; expression of Rec1_3 at 8 weeks (RT-PCR study), in words ([2]; hypercholesterolemic animals receiving lercanidipine racemate, compared with hypercholesterolemic animals at 14 days): lower; Relative Abundance Rec1_16, 20 pg F (REC1_16 (TCGG 195) mRNA; cycle 28): 0.0; Relative Abundance Rec1_16, 20 pg F (REC1_16 (TCGG 195) mRNA; cycle 30): 0.2; Relative Abundance Rec1_16, 20 pg F (REC1_16 (TCGG 195) mRNA; cycle 32): 0.6; Relative Abundance Rec1_16, 20 pg F (REC1_16 (TCGG 195) mRNA; cycle 34): 0.3; expression of Rec1_16 at 8 weeks (RT-PCR study), in words (REC1_16 (TCGG 195) mRNA; [3]): decreased

Q: For COC(=O)C1=C(C)NC(C)=C(C(=O)OC(C)(C)CN(C)CCC(c2ccccc2)c2ccccc2)[C@@H]1c1cccc([N+](=O)[O-])c1.Cl (single isomer, unassigned) [(R)-lercanidipine], which “effectiveness as a ligand to the calcium channel, less effective” value (calcium channel) is on record?
A: The value was 2-3 orders of magnitude.
